This assay has as its system Streptozotocin (STZ) induced diabetic rats. Nature of the assay: Study 2: HCQ and its combination with Losartan in comparison with anti-diabetic control (Glimepiride) in renal damage. It counts as in vivo, Wistar rats. The following applies: for Serum Creatinine after 8th week / Serum Creatinine after 8th week (% Control) / Total Serum Protein Levels after 8th week / Total Serum Protein Levels after 8th week (% Control): Glimepiride 8 mg/kg alone (antidiabetic control) or with Losartan 11 mg/kg and/or Hydroxychloroquine 45 mg/kg, oral once daily; for Total Protein in Kidney Homogenate (% Control) / Total Protein in Kidney Homogenate Mean / TBARS (% Control) / TBARS Mean: after 8th week, Glimepiride 8 mg/kg alone or with Losartan 11 mg/kg and/or Hydroxychloroquine 45 mg/kg; for TBARS (% Control) / TBARS Mean: kidney homogenate. As for the experimental part: The Efficacy of the drugs was tested in two different models, one involving comparison with diabetic control (i.e. Diabetic Rats not treated with any medication) and the other involving comparison with the anti-diabetic control group (i.e. Diabetic rats administered Glimepiride) in two separate studies. 30 Wistar rats of either sex weighing 150-250 g were divided randomly into 5 groups consisting of 6 animals each. Diabetes was induced in rats by single administration of Streptozotocin (STZ)(55 mg/kg/i.p) dissolved in 0.1 M-citrate buffer, pH 4.5. Group 1 (normal control) consisted of normal rats that neither received streptozotocin nor any test drug; Group 2 served as Anti-Diabetic control wherein diabetic rats were treated with antidiabetic drug Glimepiride. Group 3 was diabetic rats treated with Losartan (11 mg/kg); Group 4 was diabetic rats treated with Hydroxychloroquine (45 mg/kg) and Group 5 was diabetic rats treated with combination of Hydroxychloroquine (45 mg/kg) and Losartan (11 mg/kg). The study drugs were dissolved/suspended in distilled water and administered orally once a day for eight weeks. The diabetes mellitus induced nephropathy was assessed by estimating the level of serum creatinine and total serum protein content after completion of eighth week of study. TBARS and Total Protein were measured as markers of renal oxidative stress in Kidney Homogenate after completion of eighth week of study.

Molecules are shown by their SMILES.

Take `CCN(CCO)CCCC(C)Nc1ccnc2cc(Cl)ccc12` (stereo not shown) [Hydroxychloroquine, 2-[{4-[(7-chloroquinolin-4-yl)amino]pentyl}(ethyl)amino]ethanol]: the “Serum Creatinine after 8th week” value was 2.80 mg/dL, the “Serum Creatinine after 8th week (% Control)” value was “(88.33) % Control”, the “Total Serum Protein Levels after 8th week” value was determined as 5.39 g/dL and the “Total Serum Protein Levels after 8th week (% Control)” value is recorded as “(112.24) % Control”. Moreover, the “Total Protein in Kidney Homogenate (% Control)” value was “(107.68) % Control”, the “Total Protein in Kidney Homogenate Mean” value is 1003.83 µg/mL, the “TBARS (% Control)” value is on record as “(57.32) % Control” and the “TBARS Mean” value was 0.47 nM/mg.
Take `CCCCc1nc(Cl)c(CO)n1Cc1ccc(-c2ccccc2-c2nn[nH]n2)cc1` [Losartan]: the “Serum Creatinine after 8th week” value was 3.00 mg/dL, the “Serum Creatinine after 8th week (% Control)” value is recorded as “(94.64) % Control”, the “Total Serum Protein Levels after 8th week” value is 5.45 g/dL and the “Total Serum Protein Levels after 8th week (% Control)” value is “(113.21) % Control”. The “Total Protein in Kidney Homogenate (% Control)” value is listed as “(98.15) % Control”, the “Total Protein in Kidney Homogenate Mean” value worked out at 909.50 µg/mL, the “TBARS (% Control)” value is recorded as “(76.83) % Control” and the “TBARS Mean” value amounted to 0.63 nM/mg.

For the origin of these results see patent US20160030415A1, “TREATMENT AND PROPHYLAXIS OF KIDNEY DISEASES” (priority 2013, published 2016).
